# Like-named read-outs stand apart in the source and are kept apart here.
# Test system: HSV-2
# Experiment: Plaque reduction assay, HSV-2 clinical isolates on Vero cells
# Type: cell-based
# Settings: for IC50: Human alphaherpesvirus 2, Vero
# From the text: Viral isolates were used to infect a sub-confluent monolayer of Vero cells at a concentration of 75 or 50 plaque forming units (PFU) per well for HSV-1 and HSV-2, respectively. […] CMC medium typically used to create a semisolid interface and prevents indiscrimate viral spreading. Other materials (e.g. agar) may also be used to create this interface.
# Cells were fixed with 10% formalin and stained with crystal violet before enumeration of the plaques (microscopic observation or use of fluorescent antibodies for detection is also suitable). The data obtained from these experiments were then expressed as percent inhibition of viral infectivity relative to the no drug control.
# Definitions of phenotypic drug susceptibility classification as sensitive or resistant were as follows: ACV, <3 μM or >40 μM; PCV, <10 μM or >40 μM; CDV, <24 μM or >30 μM; FOS, <250 μM or >400 μM; and ACV, <6.5 μM or >40 μM; PCV, <38 μM or >40 μM; FOS, <250 μM or >400 μM for HSV-1 and HSV-2, respectively. Any IC50 values falling in between these sensitive and resistant cut-offs were reported as intermediate resistance.
# The phenotype (i.e. reactivity to a drug) of the virus was characterised by the plaque reduction assay as described above. The present inventors have characterised the resistance-causing phenotype of a large number of TK and DNA pol mutations.
smiles,measurement,setting,value
"Nc1nc2c(ncn2COCCO)c(=O)[nH]1 [Aciclovir, acyclovir]",Level of resistance,HSV-2 DNA pol R628G (18820>G),weak/intermediate resistance
same,IC50,"isolate HPG001, HSV-2 TK A125T (373G>A), read-out: Drug susceptibility (IC50 value)",1.53 µM
same,IC50,"isolate HPG001, HSV-2 pol H714R (2141A>G), read-out: Drug susceptibility (IC50 value)",1.53 µM
same,IC50,"isolate HPG004, HSV-2 pol M494T (1481T>C), also pol S729N, read-out: Drug susceptibility (IC50 value)",> 40 µM
same,IC50,"isolate HPG007, HSV-2 pol R628G (1882C>G), read-out: Drug susceptibility (IC50 value)",28.6 µM
same,IC50,"isolate HPG017, HSV-2 TK Q186H (558G>T), read-out: Drug susceptibility (IC50 value)",10.2 µM
same,IC50,"isolate HPG022, HSV-2 TK E213D (639A>C), read-out: Drug susceptibility (IC50 value)",4.46 µM
same,IC50,"isolate HPG022, HSV-2 pol D174Y (520G>T), read-out: Drug susceptibility (IC50 value)",4.46 µM
same,IC50,"isolate HPG023, HSV-2 TK Q186H (558G>T), read-out: Drug susceptibility (IC50 value)",12.1 µM
same,IC50,"isolate HPG024, HSV-2 TK E213D (639A>C), read-out: Drug susceptibility (IC50 value)",2.5 µM
same,IC50,"isolate HPG028, HSV-2 TK 98stop or A94fs (276delG, 278delG, 279delG, or 280delG), read-out: Drug susceptibility (IC50 value)",> 40 µM
same,IC50,"isolate HPG028, HSV-2 pol E776Q (2326G>C), also TK deletion (G) nt 276-280, read-out: Drug susceptibility (IC50 value)",> 40 µM
same,IC50,"isolate HPG028, HSV-2 pol R775C, R775W (2323C>T; 2325C>G), also TK deletion (G) nt 276-280, read-out: Drug susceptibility (IC50 value)",> 40 µM
same,IC50,"isolate HPG030, HSV-2 TK Q90stop (268C>T), read-out: Drug susceptibility (IC50 value)",> 40 µM
same,IC50,"isolate HPG030, HSV-2 pol E761K (2281G>A), also TK Q90stop, read-out: Drug susceptibility (IC50 value)",> 40 µM
same,IC50,"isolate HPG036, HSV-2 TK E84K (250G>A), read-out: Drug susceptibility (IC50 value)",> 40 µM
same,IC50,"isolate HPG038, HSV-2 TK R34C (100C>T), read-out: Drug susceptibility (IC50 value)",2.04 µM
same,IC50,"isolate HPG044, HSV-2 TK M86L (256A>C), read-out: Drug susceptibility (IC50 value)",> 40 µM
same,IC50,"isolate HPG048, HSV-2 TK Q90stop (268C>T), read-out: Drug susceptibility (IC50 value)",> 40 µM
same,IC50,"isolate HPG048, HSV-2 pol E761K (2281G>A), also TK Q90stop, read-out: Drug susceptibility (IC50 value)",> 40 µM
same,IC50,"isolate HPG057, HSV-2 TK 98stop or A94fs (276delG, 278delG, 279delG, or 280delG), read-out: Drug susceptibility (IC50 value)",> 40 µM
same,IC50,"isolate HPG058, HSV-2 TK 183stop or P154fs (458delC, 459delC, 460delC, or 461delC), read-out: Drug susceptibility (IC50 value)",36.2 µM
same,IC50,"read-out: Drug susceptibility (IC50 value), isolate HPG034, HSV-2 TK L313S (938A>C)",35.8 µM
same,IC50,"read-out: Drug susceptibility (IC50 value), isolate HPG056, HSV-2 pol M447L (1339A>C)",1.56 µM
same,IC50,"read-out: Drug susceptibility Aciclovir (ACV), isolate HPG001, HSV-2 TK A125T (373G>A)",< 6.5 µM
same,IC50,"read-out: Drug susceptibility Aciclovir (ACV), isolate HPG001, HSV-2 pol H714R (2141A>G)",< 6.5 µM
same,IC50,"read-out: Drug susceptibility Aciclovir (ACV), isolate HPG004, HSV-2 pol M494T (1481T>C), also pol S729N",> 40 µM
same,IC50,"read-out: Drug susceptibility Aciclovir (ACV), isolate HPG007, HSV-2 pol R628G (1882C>G)",6.5 to 40 µM
same,IC50,"read-out: Drug susceptibility Aciclovir (ACV), isolate HPG017, HSV-2 TK Q186H (558G>T)",6.5 to 40 µM
same,IC50,"read-out: Drug susceptibility Aciclovir (ACV), isolate HPG022, HSV-2 TK E213D (639A>C)",< 6.5 µM
same,IC50,"read-out: Drug susceptibility Aciclovir (ACV), isolate HPG022, HSV-2 pol D174Y (520G>T)",< 6.5 µM
same,IC50,"read-out: Drug susceptibility Aciclovir (ACV), isolate HPG023, HSV-2 TK Q186H (558G>T)",6.5 to 40 µM
same,IC50,"read-out: Drug susceptibility Aciclovir (ACV), isolate HPG024, HSV-2 TK E213D (639A>C)",< 6.5 µM
same,IC50,"read-out: Drug susceptibility Aciclovir (ACV), isolate HPG028, HSV-2 TK 98stop or A94fs (276delG, 278delG, 279delG, or 280delG)",> 40 µM
same,IC50,"read-out: Drug susceptibility Aciclovir (ACV), isolate HPG028, HSV-2 pol E776Q (2326G>C), also TK deletion (G) nt 276-280",> 40 µM
same,IC50,"read-out: Drug susceptibility Aciclovir (ACV), isolate HPG028, HSV-2 pol R775C, R775W (2323C>T; 2325C>G), also TK deletion (G) nt 276-280",> 40 µM
same,IC50,"read-out: Drug susceptibility Aciclovir (ACV), isolate HPG030, HSV-2 TK Q90stop (268C>T)",> 40 µM
same,IC50,"read-out: Drug susceptibility Aciclovir (ACV), isolate HPG030, HSV-2 pol E761K (2281G>A), also TK Q90stop",> 40 µM
same,IC50,"read-out: Drug susceptibility Aciclovir (ACV), isolate HPG034, HSV-2 TK L313S (938A>C)",6.5 to 40 µM
same,IC50,"read-out: Drug susceptibility Aciclovir (ACV), isolate HPG036, HSV-2 TK E84K (250G>A)",> 40 µM
same,IC50,"read-out: Drug susceptibility Aciclovir (ACV), isolate HPG038, HSV-2 TK R34C (100C>T)",< 6.5 µM
same,IC50,"read-out: Drug susceptibility Aciclovir (ACV), isolate HPG044, HSV-2 TK M86L (256A>C)",> 40 µM
same,IC50,"read-out: Drug susceptibility Aciclovir (ACV), isolate HPG048, HSV-2 TK Q90stop (268C>T)",> 40 µM
same,IC50,"read-out: Drug susceptibility Aciclovir (ACV), isolate HPG048, HSV-2 pol E761K (2281G>A), also TK Q90stop",> 40 µM
same,IC50,"read-out: Drug susceptibility Aciclovir (ACV), isolate HPG056, HSV-2 pol M447L (1339A>C)",< 6.5 µM
same,IC50,"read-out: Drug susceptibility Aciclovir (ACV), isolate HPG057, HSV-2 TK 98stop or A94fs (276delG, 278delG, 279delG, or 280delG)",> 40 µM
same,IC50,"read-out: Drug susceptibility Aciclovir (ACV), isolate HPG058, HSV-2 TK 183stop or P154fs (458delC, 459delC, 460delC, or 461delC)",6.5 to 40 µM

# — US12281363B2, “Methods for detecting antiviral-drug resistant virus” (Secretary of State for Health and Social Care, priority 2018, dated 2025)
